Data from patent US20100093719A1, “PHARMACOKINETICALLY IMPROVED COMPOUNDS” (SURFACE LOGIX, INC., priority 2005, published 2010).
In brackets after ≈: the same amount, converted by molar mass. Read-outs that look alike come from different tables or passages of the source.

Legend:
Solubility = format: physicochemical
Caco-2 = Caco-2 permeability; format: in vitro ADME
Description: Several model systems are available, employing monolayers of various cell types, for evaluation of active transport of pharmaceutically active substances. For example, monolayers of Caco-2 intestinal epithelial cells can be used to evaluate active transport of substances between the intestine and the bloodstream. When plated on a surface which allows the flow of material from apical to basolateral and vice versa, such cells form a biological membrane which can be used to simulate physiological absorption and bio-availability. In another example, mouse brain capillary endothelial cell (MBEC) lines have been established to evaluate active transport in and out of the central nervous system. Another example of such cells is HT29 human colon carcinoma cells. Further, monolayers expressing particular transporter proteins can be established using transfected cells. For example, Sasaki et al (2002) J. Biol. Chem. 8:6497 used a double-transfected Madin-Darby canine kidney cell monolayer to study transport of organic anions.

PDE5 = PDE5 (Homo sapiens, UniProt O76074); experiment: Phosphodiesterase inhibition PDE-5 human; format: biochemical
Method: (§1) Phosphodiesterase inhibition was determined by methods known to one of skill in the art.

Non-specific binding = format: in vitro ADME
PAMPA permeability = format: in vitro ADME
Cytotox GC50 = format: cell-based
PDE-5 = PDE-5 (Bos taurus, UniProt Q28156); experiment: Phosphodiesterase inhibition PDE-5 bovine; format: biochemical
Method: as §1

RLM stability T1/2 = format: in vitro ADME; details: rat, liver microsomes
Cytotox LC50 = details: read-out: Cytotox LC50 Acute
PDE-3 = experiment: Phosphodiesterase inhibition PDE-3; format: biochemical
Method: as §1

PDE-1 = experiment: Phosphodiesterase inhibition PDE-1; format: biochemical
Method: as §1

PDE-6 = experiment: Phosphodiesterase inhibition PDE-6; format: biochemical
Method: as §1

[1] = pH 2.7, aqueous buffer, read-out: Solubility pH 2.7
[2] = pH 7.4, aqueous buffer, read-out: Solubility pH 7.4

| Caco-2 AtoB (Caco-2) | Caco-2 BtoA (Caco-2) | Non-Spec Binding (Non-specific binding) | SMILES | solubility (Solubility; [1]) | solubility (Solubility; [2]) | IC50 (PDE5) | PAMPA Hex (PAMPA permeability) | Cytotox GC50 (Cytotox GC50) | CC50 (in vitro) | IC50 (PDE-5) | half-life (RLM stability T1/2) | PAMPA Lec (PAMPA permeability) | CC50 (Cytotox LC50) | IC50 (PDE-3) | IC50 (PDE-1) | IC50 (PDE-6) |
| --- | --- | --- | --- | --- | --- | --- | --- | --- | --- | --- | --- | --- | --- | --- | --- | --- |
| 11.16 10^−6 | 55.15 10^−6 | 7.3% | CCCc1nc(C)c2c(=O)[nH]c(-c3cc(S(=O)(=O)N(C)CC(=O)N4CCOCC4)ccc3OCC)nn12 [Compound 6] | > 100 µM | > 100 µM | 0.68 nM | 0.78 10^−6 |  |  |  |  |  |  |  |  |  |
|  |  |  | CCCc1nc(C)c2c(=O)[nH]c(-c3cc(S(=O)(=O)N(C)C4(C(=O)N(C)C)CC4)ccc3OCC)nn12 [Compound 16] | 74.7 µM (≈ 38.6 µg/mL) | 82.5 µM (≈ 42.6 µg/mL) | 0.42 nM | 3.41 10^−6 | 100 µM | ≥ 100 µM |  |  |  |  |  |  |  |
|  |  |  | CCCc1nc(C)c2c(=O)[nH]c(-c3cc(S(=O)(=O)N[C@@H](C)C(=O)N(C)C)ccc3OCC)nn12 [Compound 17] | 70 µM (≈ 34.4 µg/mL) | 78.4 µM (≈ 38.5 µg/mL) | 0.66 nM | 0.26 10^−6 | 100 µM | ≥ 100 µM |  |  |  |  |  |  |  |
| 2.97 10^−6 | 25.95 10^−6 | 7% | CCCc1nc(C)c2c(=O)[nH]c(-c3cc(S(=O)(=O)N(C)CC(=O)N(C)CC(=O)N(C)C)ccc3OCC)nn12 [Compound 4] | 112 µM (≈ 62.9 µg/mL) | 109 µM (≈ 61.2 µg/mL) | 0.11 nM | 0.47 10^−6 |  |  | 0.084 nM | 64 min | 0.056 10^−6 |  |  |  |  |
| 2.33 10^−6 | 11.31 10^−6 | 9.8% | CCCc1nc(C)c2c(=O)[nH]c(-c3cc(S(=O)(=O)N(C)CC(=O)N(C)CCN(C)C)ccc3OCC)nn12 [Compound 9] | > 100 µM | > 100 µM | 1.5 nM | 0.03 10^−6 |  |  |  |  |  |  |  |  |  |
|  |  |  | CCCc1nc(C)c2c(=O)[nH]c(-c3cc(S(=O)(=O)N(CC)CC(=O)N(CC)CC)ccc3OCC)nn12 [Compound 10] | 77.9 µM (≈ 41.5 µg/mL) | 78.5 µM (≈ 41.8 µg/mL) | 0.32 nM | 67.04 10^−6 |  |  |  |  |  |  |  |  |  |
| 4.35 10^−6 | 35.58 10^−6 | 2.6% | CCCc1nc(C)c2c(=O)[nH]c(-c3cc(S(=O)(=O)N(C)CC(=O)N4CCN(C)CC4)ccc3OCC)nn12 [Compound 7] | > 100 µM | > 100 µM | 0.535 nM | 0.18 10^−6 |  |  |  |  |  |  |  |  |  |
| 5.15 10^−6 | 31.45 10^−6 |  | CCCc1nc(C)c2c(=O)[nH]c(-c3cc(S(=O)(=O)N(C)CC(=O)NC)ccc3OCC)nn12 [Compound 21] | > 100 µM | > 100 µM | 0.25 nM | 0.24 10^−6 |  |  |  |  |  |  |  |  |  |
|  |  |  | CCCc1nc(C)c2c(=O)[nH]c(-c3cc(S(=O)(=O)N(C)[C@H](C)C(=O)NC)ccc3OCC)nn12 [Compound 14] | 62.6 µM (≈ 30.7 µg/mL) | 64 µM (≈ 31.4 µg/mL) | 0.35 nM | 0.47 10^−6 | 88.0 µM | ≥ 100 µM |  |  |  |  |  |  |  |
|  |  |  | CCCc1nc(C)c2c(=O)[nH]c(-c3cc(S(=O)(=O)N[C@H](C)C(=O)N(C)C)ccc3OCC)nn12 [Compound 18] | 70.3 µM (≈ 34.5 µg/mL) | 75.8 µM (≈ 37.2 µg/mL) | 0.36 nM | 0.18 10^−6 | 100 µM | ≥ 100 µM |  |  |  |  |  |  |  |
|  |  |  | CCCc1nc(C)c2c(=O)[nH]c(-c3cc(S(=O)(=O)N(C)[C@@H](C)C(=O)NC)ccc3OCC)nn12 [Compound 13] | 69.4 µM (≈ 34 µg/mL) | 74.6 µM (≈ 36.6 µg/mL) | 0.17 nM | 0.42 10^−6 | 94.0 µM | ≥ 100 µM |  |  |  |  |  |  |  |
| 19.4 10^−6 | 60.2 10^−6 |  | CCCc1nc(C)c2c(=O)[nH]c(-c3cc(S(=O)(=O)N4CCCC4C(=O)N(C)C)ccc3OCC)nn12 (centres unmarked) [Compound 5] | 100 µM (≈ 51.7 µg/mL) | 93 µM (≈ 48 µg/mL) | 2.3 nM | 13.18 10^−6 |  |  | 1.6 nM | 30.1 min |  |  |  |  |  |
| 42.03 10^−6 | 77.41 10^−6 | 19% | CCCc1nc(C)c2c(=O)[nH]c(-c3cc(S(=O)(=O)N(C)CC(=O)N(CC)CC)ccc3OCC)nn12 [Compound 8] | > 100 µM | > 100 µM | 0.78 nM | 21.81 10^−6 |  |  |  | 15 min |  |  |  |  |  |

| SMILES | Caco-2 AtoB (Caco-2) | Caco-2 BtoA (Caco-2) | Non-Spec Binding (Non-specific binding) | solubility (Solubility; [1]) | solubility (Solubility; [2]) | IC50 (PDE5) | PAMPA Hex (PAMPA permeability) | Cytotox GC50 (Cytotox GC50) | CC50 (in vitro) | IC50 (PDE-5) | half-life (RLM stability T1/2) | PAMPA Lec (PAMPA permeability) | CC50 (Cytotox LC50) | IC50 (PDE-3) | IC50 (PDE-1) | IC50 (PDE-6) |
| --- | --- | --- | --- | --- | --- | --- | --- | --- | --- | --- | --- | --- | --- | --- | --- | --- |
| CCCc1nc(C)c2c(=O)[nH]c(-c3cc(S(=O)(=O)NC(C)(C)C(=O)N(C)C)ccc3OCC)nn12 [Compound 19] | 2.43 10^−6 | 33 10^−6 |  | > 100 µM | 7.1 µM (≈ 3.58 µg/mL) | 0.193 nM | 0.17 10^−6 | 100 µM | ≥ 100 µM |  |  |  |  |  |  |  |
| CCCc1nc(C)c2c(=O)[nH]c(-c3cc(S(=O)(=O)N(C)CC(=O)N(C)C)ccc3OCC)nn12 [Compound 1] | 17.46 10^−6 | 48.88 10^−6 | 11.07% | > 100 µM | 96.1 µM (≈ 47.2 µg/mL) | 0.097 nM | 5.49 10^−6 | 76.7 µM | 75 µM | 0.122 nM | 22 min | 0.128 10^−6 | 100 µM | 986 nM | 25 nM | 3.5 nM |
| CCCc1nc(C)c2c(=O)[nH]c(-c3cc(S(=O)(=O)N(C)C(C)(C)C(=O)NC)ccc3OCC)nn12 [Compound 15] | 6.8 10^−6 | 34.9 10^−6 |  |  |  | 0.256 nM | 0.25 10^−6 | 95.0 µM | ≥ 100 µM |  |  |  |  |  |  |  |
| CCCc1nc(C)c2c(=O)[nH]c(-c3cc(S(=O)(=O)N(C)[C@H](C)C(=O)N(C)C)ccc3OCC)nn12 [Compound 2] | 33.33 10^−6 | 61.33 10^−6 | 20.7% | > 100 µM | > 100 µM | 0.0395 nM | 18.2 10^−6 | 94.6 µM | ≥ 100 µM | 0.101 nM | 32.6 min |  | 100 µM | 507 nM | 13 nM | 0.605 nM |
| CCCc1nc(C)c2c(=O)[nH]c(-c3cc(S(=O)(=O)N(C)C(C)(C)C(=O)N(C)C)ccc3OCC)nn12 [Compound 3] | 28.85 10^−6 | 58.45 10^−6 | 14.3% | > 100 µM | > 100 µM | 0.16 nM | 9.11 10^−6 | 100 µM | ≥ 100 µM | 0.138 nM | 72.7 min |  | 100 µM | 412 nM | 10 nM | 1.7 nM |
| CCCc1nc(C)c2c(=O)[nH]c(-c3cc(S(=O)(=O)N(C)[C@@H](C)C(=O)N(C)C)ccc3OCC)nn12 [Compound 12] | 33.39 10^−6 | 50.43 10^−6 | 30.7% | 96 µM (≈ 48.4 µg/mL) | 100 µM (≈ 50.5 µg/mL) | 0.298 nM | 13.93 10^−6 | 99.3 µM | ≥ 100 µM |  | 32.2 min |  | 100 µM |  |  |  |
